Assay type in all cases: cell-based, human
One assay has as its system Treg cells. In words: Treg-cell vs Tconv-cell expansion and proliferation in HD precultured PBMCs (flow cytometry, Ki67, CFSE). As to conditions: 0.01 mM MP, TAB08 1 μg/mL. Here is the method:
Treg-cell (CD25^hiFoxp3^+) and activated Tconv-cell (CD25^loFoxp3^−) frequencies among gated CD4^+ T cells were then assessed by flow cytometry using a live light-scatter entrance gate. […] Treg-cell frequencies among CD4^+ T cells and absolute numbers of Treg cells were determined by flow cytometry after 5 days of culture. […] Treg-cell versus Tconv-cell expansion in CD25-depleted and nondepleted PBMC cultures was then assessed by flow cytometry, using a live light-scatter entrance gate followed by gates for CD4^+Foxp3^− (left dot plots) and CD4^+Foxp3^+ (right dot plots). […] Proliferation was assessed by, in Panel D, the expression of Ki67 and Panel E CFSE dilution. *denotes insufficient number of cells for evaluation. […]
Cell proliferation was measured from day 2 to 3 as radioactivity incorporated from [H^3] thymidine (1 μCi per well, Hartmann Analytic GmbH) into DNA, using a liquid scintillation counter (PerkinElmer). Results are expressed as counts per minute (cpm). […]
For phenotypic analysis, cells were stained with the appropriate antibodies for 20 min at 4° C., washed once with FACS buffer (PBS, 0.1% BSA, 0.2% NaN3), and fixed with 2% paraformaldehyde. […] Data were analyzed using FlowJo Version 9.4.11 software (TreeStar). Results are shown as log 10 fluorescence intensities. […]
Background: In flow cytometry, cells or beads pass a laser one at a time.

Assay [1] concerns anti-CD3 stimulated CFSE-labeled CD4+ T cells. In words: Treg-cell suppression assay. As to conditions: Enbrel during Treg-cell expansion, RA patient.
For a further assay, the system named is regulatory T cells. In words: Regulatory T cells and Ki67+ Tregs in RESTORE system, PBMC samples from RA patients (Table 16). The procedure:
(§1) PBMC were cultured in supplemented RPMI 1640 containing 10% AB-positive heat-inactivated human serum (Sigma) for two days at high cell density (HD; 1×10^7/ml) to allow tissue-like interactions. Cells were then harvested and cultured under standard conditions (1×10^6/ml) in 96 or 48-well flat-bottom tissue culture plates in a final volume of 0.2 or 0.6 ml in a humidified incubator at 37° C. with 5% CO2. Intracellular Ki67 staining was used to measure cell proliferation. For intracellular staining of Foxp3, Ki67 and CD4, cells were first surface stained, permeabilized with Fix/Perm (eBioscience), and stained with the appropriate antibodies diluted in Perm/Wash (eBioscience). FACS analysis was performed using a FACSCalibur flow cytometer (BD Biosciences). Data were analyzed using FlowJo software (TreeStar).

In assay [2] the test system is PBMC samples taken from RA patients. In words: In vitro RESTORE system: cytokine production by PBMC samples from RA patients. As to conditions: OKT3 1 μg/ml.
Source text: The purpose of the RESTORE method application was definition of safety parameters of the use of TAB08 antibody and the possibility of participation of RA patients in clinical trials, in particular:
To determine the levels of response of peripheral blood mononuclear cells of RA patients to various concentrations of TAB08, i.e. trace the dose-dependence of cytokine release by mononuclear cells exposed to TAB08 in vitro.
To determine the ability of methylprednisolone, which has an anti-inflammatory effect, to suppress TAB08-induced cytokine release.
as §1

Regarding `C[C@H]1C[C@@H]2[C@H]([C@@H](O)C[C@@]3(C)[C@H]2CC[C@]3(O)C(=O)CO)[C@@]2(C)C=CC(=O)C=C12` [MP, methylprednisolone], the “suppression of division of CD4+ Tconv cells (CFSE)” value in the assay on Treg cells was approximately 80%.

On to Enbrel, for which, in assay [1], the “effect on suppressive activity of TAB08-expanded Treg cells” value was “did not lead to further enhancement of suppressive activity”.

Turning to “OKT3: Clinical grade OKT3 (Janssen-Cilag), anti-CD3 (anti-TCR) antibody used as stimulus”, the “% FoxP3+/CD4+” value with regulatory T cells (Patient 0104, OKT3 1 μg_mL) turned out to be 4.96%; with regulatory T cells (Patient 0105, OKT3 1 μg_mL), 5.1%; in the assay with regulatory T cells (Patient 0204, OKT3 1 μg_mL), 4.52%; in the assay with regulatory T cells (Patient 0205, OKT3 1 μg_mL), 4.62%; in the assay on regulatory T cells (Patient 0206, OKT3 1 ug_ml), 2.79%. The “% Ki67+/FoxP3+ CD4+” value in the assay on regulatory T cells (Patient 0104, OKT3 1 μg_mL) is given as 84.9%; with regulatory T cells (Patient 0105, OKT3 1 μg_mL), 80.5%; in the assay with regulatory T cells (Patient 0204, OKT3 1 μg_mL) it was 77.7%; in the assay on regulatory T cells (Patient 0205, OKT3 1 μg_mL) it was 67.7%; in the assay on regulatory T cells (Patient 0206, OKT3 1 ug_ml), 80.8%. In addition, the IL-2 production in assay [2] was 0.00 pg/mL.

Values taken from patent US20170198044A1, “COMPOSITIONS AND METHODS FOR SAFE AND EFFECTIVE IMMUNOTHERAPY” (TheraMAB LLC, priority 2014, published 2017).
